Reference: US12681015B2, “Methods for predicting patient response to DMARDs” (Queen Mary University of London, priority 2019, dated 2026)

Tested on: plasma SPM concentrations in mice
Experiment: MTX given intravenously to mice, plasma SPM by LC-MS/MS lipid mediator profiling
Assay type: in vivo
Details: blood after 1 hour; for plasma 4S,14S-diHDHA concentration in mice, Mean ± SEM / plasma 5S,15S-diHETE concentration in mice, Mean ± SEM / plasma 7S,14S-diHDHA concentration in mice, Mean ± SEM / plasma 7S,14S-diHDPA concentration in mice, Mean ± SEM / plasma 10S,17S-diHDPA concentration in mice, Mean ± SEM / plasma 13,14-dehydro-15-oxo-LXA4 concentration in mice, Mean ± SEM / plasma 14-oxo-MaR1 concentration in mice, Mean ± SEM / plasma 15-oxo-LXA4 concentration in mice, Mean ± SEM / plasma 15R-LXA4 concentration in mice, Mean ± SEM / plasma 15R-LXB4 concentration in mice, Mean ± SEM / plasma 17R-PD1 concentration in mice, Mean ± SEM / plasma 17R-RvD1 concentration in mice, Mean ± SEM / plasma 17R-RvD3 concentration in mice, Mean ± SEM / plasma 22-OH-MaR1 concentration in mice, Mean ± SEM / plasma 22-OH-PD1 concentration in mice, Mean ± SEM / plasma LXA4 concentration in mice, Mean ± SEM / plasma LXB4 concentration in mice, Mean ± SEM / plasma MaR1 concentration in mice, Mean ± SEM / plasma MaR1n-3 DPA concentration in mice, Mean ± SEM / plasma MaR2 concentration in mice, Mean ± SEM / plasma PD1 concentration in mice, Mean ± SEM / plasma PD1n-3 DPA concentration in mice, Mean ± SEM / plasma PDx concentration in mice, Mean ± SEM / plasma RvD1 concentration in mice, Mean ± SEM / plasma RvD1n-3 DPA concentration in mice, Mean ± SEM / plasma RvD2 concentration in mice, Mean ± SEM / plasma RvD2n-3 DPA concentration in mice, Mean ± SEM / plasma RvD3 concentration in mice, Mean ± SEM / plasma RvD4 concentration in mice, Mean ± SEM / plasma RvD5 concentration in mice, Mean ± SEM / plasma RvD5n-3 DPA concentration in mice, Mean ± SEM / plasma RvD6 concentration in mice, Mean ± SEM / plasma RvE1 concentration in mice, Mean ± SEM / plasma RvE2 concentration in mice, Mean ± SEM / plasma RvE3 concentration in mice, Mean ± SEM / plasma RvT1 concentration in mice, Mean ± SEM / plasma RvT2 concentration in mice, Mean ± SEM / plasma RvT3 concentration in mice, Mean ± SEM / plasma RvT4 concentration in mice, Mean ± SEM: intravenous injection
Description: Plasma was obtained by centrifugation and peripheral blood SPM concentrations were determined using LC-MS/MS based lipid mediator profiling. (A) OPLS-DA analysis of plasma SPM concentrations. Colored spherical areas display 95% confidence region of respective incubations. […] Results for A, B are representative of n=6 donors from three distinct experiments. […] Blood was then collected after 1 hour and SPM concentrations were determined using LC-MS/MS based lipid mediator profiling (D) oPLS-DA analysis of plasma SPM concentrations. Colored areas display 95% confidence region of respective incubations. […] Results are representative of n=4 mice per group and experiments were conducted on two distinct occasions.
Plasma was obtained from peripheral blood of healthy volunteers, patients and mouse following centrifugation at 1500×g for 10 min at room temperature. Paws were collected and immediately transferred to liquid nitrogen prior to homogenization in 1 ml ice cold MeOH and homogenized using a glass dounce. All samples for LC-MS/MS-based profiling were extracted using solid-phase extraction columns as in Walker, M. E., Souza, P. R., Colas, R. A. & Dalli, J. “13-Series resolvins mediate the leukocyte-platelet actions of atorvastatin and pravastatin in inflammatory arthritis.” FASEB J 31, 3636-3648 (2017), the contents of which are incorporated herein by reference. Prior to sample extraction, deuterated internal standards, representing each region in the chromatographic analysis (500 pg each) were added to facilitate quantification. Samples were kept at −20° C. for a minimum of 45 min to allow protein precipitation. Supernatants were subjected to solid phase extraction, methyl formate fraction collected, brought to dryness and suspended in phase (methanol/water, 1:1, vol/vol) for injection on a Shimadzu LC-20AD HPLC and a Shimadzu SIL-20AC autoinjector, paired with a QTrap 5500 or QTrap 6500 plus (Sciex). An Agilent Poroshell 120 EC-C18 column (100 mm×4.6 mm×2.7 μm) was kept at 50° C. and mediators eluted using a mobile phase consisting of methanol/water/acetic acid of 20:80:0.01 (vol/vol/vol) that was ramped to 50:50:0.01 (vol/vol/vol) over 0.5 min and then to 80:20:0.01 (vol/vol/vol) from 2 min to 11 min, maintained till 14.5 min and then rapidly ramped to 98:2:0.01 (vol/vol/vol) for the next 0.1 min. This was subsequently maintained at 98:2:0.01 (vol/vol/vol) for 5.4 min, and the flow rate was maintained at 0.5 ml/min. QTrap 5500 or QTrap 6500 plus were operated using a multiple reaction monitoring method as in Walker, M. E., Souza, P. R., Colas, R. A. & Dalli, J. “13-Series resolvins mediate the leukocyte-platelet actions of atorvastatin and pravastatin in inflammatory arthritis.” FASEB J 31, 3636-3648 (2017), the contents of which are incorporated herein by reference. Each lipid mediator was identified using established criteria including matching retention time to synthetic or authentic standards and at least 6 diagnostic ions (Walker, M. E., Souza, P. R., Colas, R. A. & Dalli, J. “13-Series resolvins mediate the leukocyte-platelet actions of atorvastatin and pravastatin in inflammatory arthritis.” FASEB J 31, 3636-3648 (2017), the contents of which are incorporated herein by reference).

[1] = mice, MTX 1 μg/mouse or 22 μg/mouse intravenous

## CN(Cc1cnc2nc(N)nc(N)c2n1)c1ccc(C(=O)N[C@@H](CCC(=O)O)C(=O)O)cc1 [MTX, Methotrexate]
1 μg/mouse
  plasma 4S,14S-diHDHA concentration in mice, Mean ± SEM: 18.38 ± 6.59
  plasma 5S,15S-diHETE concentration in mice, Mean ± SEM: 14.61 ± 6.53
  plasma 7S,14S-diHDHA concentration in mice, Mean ± SEM: 0.00 ± 0.00
  plasma 7S,14S-diHDPA concentration in mice, Mean ± SEM: 0.00 ± 0.00
  plasma 10S,17S-diHDPA concentration in mice, Mean ± SEM: 2.41 ± 0.97
  plasma 13,14-dehydro-15-oxo-LXA4 concentration in mice, Mean ± SEM: 0.65 ± 0.21
  plasma 14-oxo-MaR1 concentration in mice, Mean ± SEM: 3.44 ± 0.37
  plasma 15-oxo-LXA4 concentration in mice, Mean ± SEM: 3.53 ± 1.62
  plasma 15R-LXA4 concentration in mice, Mean ± SEM: 6.41 ± 0.78
  plasma 15R-LXB4 concentration in mice, Mean ± SEM: 3.90 ± 1.80
  plasma 17R-PD1 concentration in mice, Mean ± SEM: 10.50 ± 4.91
  plasma 17R-RvD1 concentration in mice, Mean ± SEM: 0.00 ± 0.00
  plasma 17R-RvD3 concentration in mice, Mean ± SEM: 4.26 ± 0.87
  plasma 22-OH-MaR1 concentration in mice, Mean ± SEM: 0.00 ± 0.00
  plasma 22-OH-PD1 concentration in mice, Mean ± SEM: 0.00 ± 0.00
  plasma LXA4 concentration in mice, Mean ± SEM: 1.06 ± 0.20
  plasma LXB4 concentration in mice, Mean ± SEM: 16.93 ± 1.92
  plasma MaR1 concentration in mice, Mean ± SEM: 71.74 ± 20.71
  plasma MaR1n-3 DPA concentration in mice, Mean ± SEM: 0.83 ± 0.34
  plasma MaR2 concentration in mice, Mean ± SEM: 2.05 ± 0.39
  plasma PD1 concentration in mice, Mean ± SEM: 10.13 ± 4.31
  plasma PD1n-3 DPA concentration in mice, Mean ± SEM: 0.00 ± 0.00
  plasma PDx concentration in mice, Mean ± SEM: 17.23 ± 1.32
  plasma RvD1 concentration in mice, Mean ± SEM: 1.39 ± 0.59
  plasma RvD1n-3 DPA concentration in mice, Mean ± SEM: 0.67 ± 0.35
  plasma RvD2 concentration in mice, Mean ± SEM: 2.60 ± 1.05
  plasma RvD2n-3 DPA concentration in mice, Mean ± SEM: 4.54 ± 1.98
  plasma RvD3 concentration in mice, Mean ± SEM: 1.30 ± 0.56
  plasma RvD4 concentration in mice, Mean ± SEM: 3.70 ± 0.70
  plasma RvD5 concentration in mice, Mean ± SEM: 1.64 ± 0.67
  plasma RvD5n-3 DPA concentration in mice, Mean ± SEM: 4.02 ± 0.79
  plasma RvD6 concentration in mice, Mean ± SEM: 1.72 ± 0.72
  plasma RvE1 concentration in mice, Mean ± SEM: 0.54 ± 0.25
  plasma RvE2 concentration in mice, Mean ± SEM: 1.70 ± 0.52
  plasma RvE3 concentration in mice, Mean ± SEM: 6.22 ± 1.39
  plasma RvT1 concentration in mice, Mean ± SEM: 10.18 ± 2.01
  plasma RvT2 concentration in mice, Mean ± SEM: 0.00 ± 0.00
  plasma RvT3 concentration in mice, Mean ± SEM: 0.63 ± 0.28
  plasma RvT4 concentration in mice, Mean ± SEM: 1.40 ± 0.64
22 μg/mouse
  plasma 4S,14S-diHDHA concentration in mice, Mean ± SEM: 1.43 ± 0.64
  plasma 5S,15S-diHETE concentration in mice, Mean ± SEM: 12.65 ± 5.37
  plasma 7S,14S-diHDHA concentration in mice, Mean ± SEM: 22.10 ± 8.55
  plasma 7S,14S-diHDPA concentration in mice, Mean ± SEM: 0.64 ± 0.55
  plasma 10S,17S-diHDPA concentration in mice, Mean ± SEM: 0.52 ± 0.45
  plasma 13,14-dehydro-15-oxo-LXA4 concentration in mice, Mean ± SEM: 0.20 ± 0.15
  plasma 14-oxo-MaR1 concentration in mice, Mean ± SEM: 0.81 ± 0.41
  plasma 15-oxo-LXA4 concentration in mice, Mean ± SEM: 3.93 ± 1.01
  plasma 15R-LXA4 concentration in mice, Mean ± SEM: 6.20 ± 1.44
  plasma 15R-LXB4 concentration in mice, Mean ± SEM: 2.17 ± 0.89
  plasma 17R-PD1 concentration in mice, Mean ± SEM: 1.41 ± 0.61
  plasma 17R-RvD1 concentration in mice, Mean ± SEM: 0.26 ± 0.30
  plasma 17R-RvD3 concentration in mice, Mean ± SEM: 0.67 ± 0.65
  plasma 22-OH-MaR1 concentration in mice, Mean ± SEM: 0.00 ± 0.00
  plasma 22-OH-PD1 concentration in mice, Mean ± SEM: 0.00 ± 0.00
  plasma LXA4 concentration in mice, Mean ± SEM: 0.56 ± 0.15
  plasma LXB4 concentration in mice, Mean ± SEM: 12.72 ± 1.68
  plasma MaR1 concentration in mice, Mean ± SEM: 37.97 ± 11.63
  plasma MaR1n-3 DPA concentration in mice, Mean ± SEM: 0.00 ± 0.00
  plasma MaR2 concentration in mice, Mean ± SEM: 1.28 ± 0.72
  plasma PD1 concentration in mice, Mean ± SEM: 9.99 ± 2.47
  plasma PD1n-3 DPA concentration in mice, Mean ± SEM: 0.28 ± 0.24
  plasma PDx concentration in mice, Mean ± SEM: 10.36 ± 2.79
  plasma RvD1 concentration in mice, Mean ± SEM: 0.14 ± 0.12
  plasma RvD1n-3 DPA concentration in mice, Mean ± SEM: 0.33 ± 0.48
  plasma RvD2 concentration in mice, Mean ± SEM: 2.99 ± 0.66
  plasma RvD2n-3 DPA concentration in mice, Mean ± SEM: 3.72 ± 3.41
  plasma RvD3 concentration in mice, Mean ± SEM: 0.18 ± 0.66
  plasma RvD4 concentration in mice, Mean ± SEM: 3.88 ± 0.55
  plasma RvD5 concentration in mice, Mean ± SEM: 0.00 ± 0.00
  plasma RvD5n-3 DPA concentration in mice, Mean ± SEM: 0.00 ± 0.00
  plasma RvD6 concentration in mice, Mean ± SEM: 0.00 ± 0.00
  plasma RvE1 concentration in mice, Mean ± SEM: 0.00 ± 0.00
  plasma RvE2 concentration in mice, Mean ± SEM: 0.96 ± 0.22
  plasma RvE3 concentration in mice, Mean ± SEM: 0.77 ± 0.64
  plasma RvT1 concentration in mice, Mean ± SEM: 9.49 ± 5.15
  plasma RvT2 concentration in mice, Mean ± SEM: 0.00 ± 0.00
  plasma RvT3 concentration in mice, Mean ± SEM: 0.87 ± 0.48
  plasma RvT4 concentration in mice, Mean ± SEM: 2.07 ± 1.16
[1]
  ALOX15-derived SPM including RvT1, RvT4 and RvD5n-3 DPA: upregulation
  peripheral blood SPM profile: dose-dependent shift
